Assay results from paper PMC9154758, “Alpinetin suppresses CYP3A4, 2C9, and 2E1 activity in vitro” (Pharmaceutical Biology, 2022).

Experiments:
Type in all cases: in vitro ADME
[1] = target: T1, CYP2C9 (Homo sapiens, UniProt P11712); test: Time-dependent inhibition assay of CYP2C9 in human liver microsomes; settings: data not shown
T1 construct: The pooled human liver microsomes (HLMs) were obtained from BD Biosciences Discovery Labware; tissue BD Biosciences Discovery Labware; host or cells: pooled human liver microsomes
T1 sequence (P11712 whole entry): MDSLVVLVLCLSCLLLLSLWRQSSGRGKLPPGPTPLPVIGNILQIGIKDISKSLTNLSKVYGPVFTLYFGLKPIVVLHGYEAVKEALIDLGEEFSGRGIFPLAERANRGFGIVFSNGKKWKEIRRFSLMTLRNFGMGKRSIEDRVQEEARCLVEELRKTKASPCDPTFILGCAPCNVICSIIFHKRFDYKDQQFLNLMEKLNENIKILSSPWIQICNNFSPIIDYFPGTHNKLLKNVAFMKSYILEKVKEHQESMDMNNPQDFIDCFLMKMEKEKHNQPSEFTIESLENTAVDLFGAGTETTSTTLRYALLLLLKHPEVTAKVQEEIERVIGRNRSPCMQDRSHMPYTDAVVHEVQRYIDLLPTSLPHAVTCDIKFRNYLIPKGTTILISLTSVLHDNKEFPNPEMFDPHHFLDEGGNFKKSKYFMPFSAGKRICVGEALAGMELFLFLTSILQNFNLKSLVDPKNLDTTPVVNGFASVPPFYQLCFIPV
Procedure: (§1) The time-dependent inhibition assay was conducted with an incubation time of 0, 5, 10, 15, and 30 min after a 30 min pre-incubation with 1 mg/mL HLMs in the presence of NADPH-generating system at 37 °C.

[2] = target: T2, CYP3A4 (Homo sapiens, UniProt P08684); test: CYP3A4 inhibition in pooled human liver microsomes (testosterone 6β-hydroxylation)
T2 construct: The pooled human liver microsomes (HLMs) were obtained from BD Biosciences Discovery Labware; tissue BD Biosciences Discovery Labware; host or cells: pooled human liver microsomes
T2 sequence (P08684 whole entry): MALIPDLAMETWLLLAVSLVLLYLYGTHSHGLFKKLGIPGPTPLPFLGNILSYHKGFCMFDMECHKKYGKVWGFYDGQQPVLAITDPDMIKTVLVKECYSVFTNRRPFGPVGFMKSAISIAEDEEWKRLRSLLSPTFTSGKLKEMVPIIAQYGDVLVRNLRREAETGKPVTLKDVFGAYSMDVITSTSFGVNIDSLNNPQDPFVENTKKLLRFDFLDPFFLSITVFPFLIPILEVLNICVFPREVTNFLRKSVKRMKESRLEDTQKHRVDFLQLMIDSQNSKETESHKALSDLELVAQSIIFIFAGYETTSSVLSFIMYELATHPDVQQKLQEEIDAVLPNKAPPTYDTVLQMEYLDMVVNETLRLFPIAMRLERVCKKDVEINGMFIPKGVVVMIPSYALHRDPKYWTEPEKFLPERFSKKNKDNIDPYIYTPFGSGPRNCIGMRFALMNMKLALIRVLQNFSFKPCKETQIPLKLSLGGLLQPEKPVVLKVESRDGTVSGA
Procedure: (§2) The pooled human liver microsomes (HLMs) were obtained from BD Biosciences Discovery Labware. The HLMs were incubated with specific substrates of corresponding CYP450 isoenzymes under the reaction conditions in Table 1 according to previous reports (Dong et al. [2018]; Zhang et al. [2019]; Zhang, Feng, et al. [2020]). The incubation system also included alpinetin (Figure 1, 99%, Chengdu Munster Biothechnology Co, China, or specific inhibitors) and an β-NADPH generating system as previously reported in the potassium phosphate buffer with a final volume of 200 μL. The β-NADPH generating system contained NADP^+, glucose-6-phosphate, glucose-6-phosphate dehydrogenase, and MgCl2, which was used to initiate the reaction after a pre-incubation of 3 min. At the end of the reactions, the acetonitrile or trichloroacetic acid (for the evaluation of CYP2A6) was added for the termination of the reactions. All reagents were of at least analytical reagent grade obtained from Sigma Aldrich (USA). All incubations were performed in triplicate and the concentrations of metabolites were analysed with HPLC.
(§3) The effect of alpinetin on the activity of CYP1A2, 2A6, 3A4, 2C8, 2C9, 2C19, 2D6, and 2E1 was first evaluated with a concentration of 100 μM. The isoenzymes that were inhibited by alpinetin were further incubated with 0, 2.5, 5, 10, 25, 50, and 100 μM alpinetin to obtain the values of IC50.
(§4) Meanwhile, the kinetic studies were conducted in the presence of various substrate concentrations to obtain the values of Ki. The inhibition model was evaluated according to the following equations: v = (VmaxS)/[Km(1 + I/Ki) + S] for the competitive inhibition and v = (VmaxS)/[(Km + S(1 + I/KiKI)] for the non-competitive inhibition. The I is the concentration of the compound, Ki is the inhibition constant, S is the concentration of the substrate, and Km is the substrate concentration at half the maximum velocity (Vmax) of the reaction.

[3] = target: T1, CYP2C9; test: CYP2C9 inhibition in pooled human liver microsomes (diclofenac 4′-hydroxylation)
Procedure: as §2, §3, §4

[4] = target: T3, CYP2E1 (Homo sapiens, UniProt P05181); test: Time-dependent inhibition assay of CYP2E1 in human liver microsomes; settings: data not shown
T3 construct: The pooled human liver microsomes (HLMs) were obtained from BD Biosciences Discovery Labware; tissue BD Biosciences Discovery Labware; host or cells: pooled human liver microsomes
T3 sequence (P05181 whole entry): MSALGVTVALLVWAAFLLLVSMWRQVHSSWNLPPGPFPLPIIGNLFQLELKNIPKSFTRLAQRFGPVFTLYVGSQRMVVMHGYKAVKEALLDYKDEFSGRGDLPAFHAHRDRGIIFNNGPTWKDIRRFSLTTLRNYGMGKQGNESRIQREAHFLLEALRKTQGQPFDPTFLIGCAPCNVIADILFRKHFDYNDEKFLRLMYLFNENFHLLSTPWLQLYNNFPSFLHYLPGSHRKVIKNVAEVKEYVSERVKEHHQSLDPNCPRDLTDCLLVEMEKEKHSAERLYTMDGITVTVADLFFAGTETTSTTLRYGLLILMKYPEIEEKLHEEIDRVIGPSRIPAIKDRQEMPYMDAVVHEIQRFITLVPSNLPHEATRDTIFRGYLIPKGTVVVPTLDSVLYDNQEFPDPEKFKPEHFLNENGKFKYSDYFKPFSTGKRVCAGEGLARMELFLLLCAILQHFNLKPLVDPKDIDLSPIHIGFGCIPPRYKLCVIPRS
Procedure: as §1

[5] = target: T2, CYP3A4; test: Time-dependent inhibition assay of CYP3A4 in human liver microsomes
Procedure: as §1

[6] = target: T3, CYP2E1; test: CYP2E1 inhibition in pooled human liver microsomes (chlorzoxazone 6-hydroxylation)
Procedure: as §2, §3, §4

[7] = 100 μM alpinetin, relative to negative control
[8] = competitive model, various substrate concentrations

Time dependence of CYP2C9 inhibition [1]: no time-dependent characteristics
Effect on CYP3A4 activity [2, 7]: dramatically inhibitory effect
Inhibition model of CYP3A4 ([2]; best-fitted model, stable Km): non-competitive
Ki ([2]; non-competitive model, 0, 2, 5, 10, and 20 μM alpinetin, various concentrations of testosterone): 4.09 µM
IC50 ([2]; pooled HLMs, 0-100 μM alpinetin, testosterone 50 μM): 8.23 µM
Effect on CYP2C9 activity [3, 7]: dramatically inhibitory effect
Ki [3, 8]: 6.42 µM
IC50 ([3]; pooled HLMs, 0-100 μM alpinetin, diclofenac 10 μM): 12.6 µM
Inhibition model of CYP2C9 ([3]; stable Vmax): competitively
Time dependence of CYP2E1 inhibition [4]: no time-dependent characteristics
Kinact of time-dependent CYP3A4 inhibition ([5]; 30 min pre-incubation, 1 mg/mL HLMs, substrate approx. 4-fold Km): 0.041 min⁻¹
Time dependence of CYP3A4 inhibition ([5]; incubation 0, 5, 10, 15, and 30 min): time-dependent
Effect on CYP2E1 activity [6, 7]: dramatically inhibitory effect
Ki [6, 8]: 5.4 µM
IC50 ([6]; pooled HLMs, 0-100 μM alpinetin, chlorzoxazone 120 μM): 11 µM
Inhibition model of CYP2E1 ([6]; stable Vmax): competitively
Structure (SMILES): COc1cc(O)cc2c1C(=O)C[C@@H](c1ccccc1)O2 [alpinetin]
